Measured values from PMC12340956, “Tranylcypromine-Based LSD1 Inhibitors as Useful Agents to Reduce Viability of” (ACS Infectious Diseases, 2025).
Where two headings read alike, the source gives them in different places.

Experiments:
[1] = system: newly transformed schistosomula (NTS); test: NTS viability phenotypic screening, 72 h
[2] = MTT cytotoxicity in RPE cells; assay type: cell-based; settings: human, retinal pigment epithelial (RPE) cells
Description: (§1) The MTT method was used to evaluate cell viability after 72 h of treatment.
(§2) Human commercial lung diploid fibroblasts (MRC-5), and diploid retinal epithelium cells (RPE) were obtained from the American Type Culture Collection (ATCC) and kindly provided by Dr Francesca Degrassi (CNR IBPM) and maintained in minimal essential medium or DMEM-F12 medium supplemented with fetal calf serum, antibiotics, and nonessential amino acids. Cells were grown at 37 °C, in a humidified atmosphere, with 5% CO2. For experiments, cells were seeded in 200 μL of complete in each well of a 96-well microtiter plate. After 24 h, compounds were added at 5, 10, 25, and 50 μM for 72 h in sextuplicate. MTT was added (0.5 mg/mL), incubated for 4 h at 37 °C, and dissolved in 200 μL of isopropyl alcohol. Absorbance was measured at 570 nm (ELISA reader, DASIT), and cell viability was calculated as viability=(ODoftreatedcells/ODofcontrolcells)×100

[3] = target: T1, human LSD1-CoREST complex (Homo sapiens, UniProt O60341); test: ThermoFAD thermal stability assay; assay type: binding; settings: for ΔTm: LSD1-CoREST thermal stability
T1 construct: made in house
Description: Compounds 14–22 were tested against the human LSD1-CoREST complex to determine their inhibitory activity. […] ThermoFAD assays were then performed to assess the impact of 14–22 on the thermal stability (ΔT m values, Table ) of the LSD1-CoREST complex. The most significant shifts in Tm values corresponded to the strongest binders. […] Compound 22 was not tested, considering its previous negative results.
Protein expression, thermal stability, and inhibition of human LSD1-CoREST were performed using established protocols. […] LSD1-CoREST (0.4 μM) was preincubated with the inhibitor at 25 °C for 10 min in the presence of 5% DMSO. The reaction was initiated by adding an equal volume of the substrate solution to the enzyme–inhibitor mixture, and resorufin fluorescence (excitation at 530–570 nm and emission at 580–590 nm) was detected with a Clariostar plate reader.

adult worms [4] = test: Adult worm viability phenotypic assay, 72 h; settings: Schistosoma mansoni, read-out: IC50 (adult worm viability)
Description: The life cycle is maintained at the Swiss TPH as described previously. Cercariae were obtained from infected snails by exposing them to a strong light source for 3–4 h in pond water.
For NTS and adult worms, transparent flat-bottom 96- and 24-well plates were used, respectively (Sarstedt, Switzerland). For juvenile worms, 48-well plates were used with 3–6 worms per plate and RPMI medium with 5% FCS and 1% penicillin/streptomycin. Compounds were initially tested at 20 and 10 μM in triplicate on NTS and repeated once; each well contained 30–40 NTS. Phenotypic reference points such as motility, morphology, and granularity were used to score incubated parasites’ overall viability (scores from 0 to 3). […] Identified hits from the NTS screening were tested on adult worms. […] The experiment was conducted in duplicate and repeated; standard deviations were calculated from two wells. […] For all in vitro assays, negative controls (DMSO at the highest tested concentration) were included.

[5] = system: S. mansoni juvenile forms; test: Speed-of-action assay in juvenile forms; assay type: cell-based, Schistosoma mansoni; settings: for IC50: Schistosoma mansoni, read-out: IC50 (speed of action, juvenile forms); for Percentage of effect: juvenile forms
From the text: (§3) To better characterize a selection of our LSD1i in vitro, we assessed the onset of their action, defined as the time required for an observable antischistosomal effect. […] For detailed percentages of activity at each time point, refer to the Supporting Information (Tables S2 and S3 in Supporting Information).

[6] = MTT cytotoxicity in MRC-5 cells; assay type: cell-based; settings: human, MRC-5 lung diploid fibroblast cells
Description: as §1, §2

adult worms [7] = test: Pairing and egg laying of adult worms; assay type: cell-based, Schistosoma mansoni; settings: for eggs' number: 20 μM
Description: Selected compounds 2, 15, 18, and 19 were tested on adult worms to evaluate their effects on pairing and egg laying.

NTS = test: Speed-of-action assay in NTS; assay type: cell-based, Schistosoma mansoni; settings: for Percentage of effect: NTS; for IC50: Schistosoma mansoni, read-out: IC50 (speed of action, NTS)
From the text: as §3

[8] = target: T1, human LSD1-CoREST complex; test: HRP-coupled LSD1 inhibition assay; assay type: biochemical; settings: 10 min preincubation, read-out: IC50 (hLSD1 direct inhibition)
Description: Protein expression, thermal stability, and inhibition of human LSD1-CoREST were performed using established protocols. […] The reaction was initiated by adding an equal volume of the substrate solution to the enzyme–inhibitor mixture, and resorufin fluorescence (excitation at 530–570 nm and emission at 580–590 nm) was detected with a Clariostar plate reader.

[9] = target: T1, human LSD1-CoREST complex; test: Spectrophotometric analysis of flavin cofactor bleaching; assay type: biochemical
[10] = 5 μM, read-out: percentage of viability, 72 h
[11] = 10 μM, read-out: percentage of viability, 72 h
[12] = 25 μM, read-out: percentage of viability, 72 h
[13] = 50 μM, read-out: percentage of viability, 72 h
[14] = read-out: IC50 (cell viability)

For CC#Cc1ccc(C(=O)Nc2ccc(C3CC3N)cc2)cc1.Cl (centres unmarked) [Compound 18, N-(4-(2-Aminocyclopropyl)phenyl)-4-(prop-1-yn-1-yl)benzamide Hydrochloride], the “Percentage of reduction of NTS viability, 72 h” value (“Percentage of reduction … 72 h” for short) ([1]; 1 μM) was 22.6 ± 1.9%, the “Percentage of reduction … 72 h” value ([1]; 10 μM) was 95.8 ± 4.2% and the “Percentage of reduction … 72 h” value ([1]; 20 μM) was 100 ± 0.0%. The IC50 ([1]; Schistosoma mansoni, read-out: IC50 (NTS viability)) was 1.76 µM, the viability at 72 h, 5 µM [2, 10] was 82 ± 21% and the viability at 72 h, 10 µM [2, 11] was 86 ± 36%. The viability at 72 h, 25 µM [2, 12] was 104 ± 20%, the viability at 72 h, 50 µM [2, 13] was 95 ± 2% and the IC50 at 72 h [2, 14] was > 100 µM. The ΔTm [3] was “+8 °C”, the IC50 (adult worms [4]) was > 10 µM and the IC50 ([5]; 4 h) was > 20 µM. The IC50 ([5]; 24 h) was > 20 µM, the IC50 ([5]; 48 h) was > 20 µM and the IC50 ([5]; 72 h) was 3.8 µM. The Percentage of effect ([5]; 4 h, 1 μM) was 20%, the Percentage of effect ([5]; 4 h, 10 μM) was 20% and the Percentage of effect ([5]; 4 h, 20 μM) was 43.64%. For the same compound, the Percentage of effect ([5]; 24 h, 1 μM) was 24.14%, the Percentage of effect ([5]; 24 h, 10 μM) was 31.03% and the Percentage of effect ([5]; 24 h, 20 μM) was 46.15%. It also gave a Percentage of effect ([5]; 48 h, 1 μM) of 34.62%, a Percentage of effect ([5]; 48 h, 10 μM) of 42.31% and a Percentage of effect ([5]; 48 h, 20 μM) of 47.92%. It also gave a Percentage of effect ([5]; 72 h, 1 μM) of 42.81%, a Percentage of effect ([5]; 72 h, 10 μM) of 44.77% and a Percentage of effect ([5]; 72 h, 20 μM) of 70.83%. For the same compound, the viability at 72 h, 5 µM [6, 10] was 111 ± 10%, the viability at 72 h, 10 µM [6, 11] was 75 ± 15% and the viability at 72 h, 25 µM [6, 12] was 98 ± 14%. For the same compound, the viability at 72 h, 50 µM [6, 13] was 75 ± 12%, the IC50 at 72 h [6, 14] was > 100 µM and the “eggs' number” value (adult worms [7]; 4 h) was 0. For the same compound, the “eggs' number” value (adult worms [7]; 8 h) was 0, the “eggs' number” value (adult worms [7]; 24 h) was 0 and the “eggs' number” value (adult worms [7]; 48 h) was 0. The “eggs' number” value (adult worms [7]; 72 h) was 2, the “effect on worm pairing” value (adult worms [7]; adult worms) was “no impact on worm pairing” and the Percentage of effect (NTS; 4 h, 10 μM) was 26.92%. It also gave a Percentage of effect (NTS; 4 h, 20 μM) of 30.77%, a Percentage of effect (NTS; 24 h, 10 μM) of 51.79% and a Percentage of effect (NTS; 24 h, 20 μM) of 75%. For the same compound, the Percentage of effect (NTS; 48 h, 10 μM) was 81.63%, the Percentage of effect (NTS; 48 h, 20 μM) was 87.76% and the Percentage of effect (NTS; 72 h, 20 μM) was 100%. The IC50 (NTS; 4 h) was > 20 µM, the IC50 (NTS; 24 h) was 6.9 µM and the IC50 (NTS; 48 h) was 4.4 µM. For the same compound, the IC50 (NTS; 72 h) was 2.4 µM and the IC50 [8] was 0.13 ± 0.02 µM.
With Cl.NC1CC1c1cccc(NC(=O)c2ccc(C#CC3CC3)cc2)c1 (centres unmarked) [Compound 22, N-(3-(2-Aminocyclopropyl)phenyl)-4-(cyclopropylethynyl)benzamide Hydrochloride] the “bleaching of the flavin cofactor” value [9] was “no bleaching”, the “thermal shift compared to the control” value [3] was “no thermal shift” and the ΔTm [3] was 0 °C.
